Measured values published in patent US20240025924A1, “HETEROCYCLE SUBSTITUTED KETONE DERIVATIVE, AND COMPOSITION AND MEDICINAL USE THEREOF” (SHANGHAI HAIYAN PHARMACEUTICAL TECHNOLOGY CO., LTD., priority 2021, published 2024).

Columns and labels:
SHP-2 enzyme = target: T1, SHP-2 enzyme (Homo sapiens, UniProt Q06124); test: Phosphatase activity assay (Homogeneous Full Length SHP-2 Assay Kit, DiFMUP substrate); assay type: biochemical; conditions: full length SHP-2 activated with 0.5 μM SHP-2 activating Peptide; 1 hour co-incubation; DiFMUP 50 μM, 30 min
T1 construct: Homogeneous Full Length SHP-2 Assay Kit (BPS Bioscience #79330); purchased BPS Bioscience 79330
T1 sequence (Q06124 1-593): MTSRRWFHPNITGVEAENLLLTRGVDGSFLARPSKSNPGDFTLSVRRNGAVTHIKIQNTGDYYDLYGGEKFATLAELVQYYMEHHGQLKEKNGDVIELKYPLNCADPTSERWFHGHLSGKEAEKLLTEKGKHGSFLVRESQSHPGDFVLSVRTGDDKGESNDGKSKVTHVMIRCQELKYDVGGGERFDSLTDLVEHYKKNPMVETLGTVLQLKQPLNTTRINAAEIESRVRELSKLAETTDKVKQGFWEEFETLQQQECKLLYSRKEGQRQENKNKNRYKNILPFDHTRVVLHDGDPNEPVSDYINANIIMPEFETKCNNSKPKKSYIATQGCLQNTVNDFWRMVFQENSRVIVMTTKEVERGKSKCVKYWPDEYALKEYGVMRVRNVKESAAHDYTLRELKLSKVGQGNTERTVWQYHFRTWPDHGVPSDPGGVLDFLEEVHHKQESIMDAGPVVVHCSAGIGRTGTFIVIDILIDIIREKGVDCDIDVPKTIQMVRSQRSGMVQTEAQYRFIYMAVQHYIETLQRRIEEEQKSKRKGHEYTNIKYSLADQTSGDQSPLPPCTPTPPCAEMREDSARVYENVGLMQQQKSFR
Procedure: IC50 values were assayed using Homogeneous Full Length SHP-2 Assay Kit (BPS Bioscience #79330), which uses 6,8-difluoro-4-methylumbelliferone phosphate (DiFMUP) as the reaction substrate. SHP2 enzyme solution (diluted to 0.04 ng/μL with 1*buffer) was mixed with 0.5 μM SHP-2 activating Peptide in a 1*buffer solution containing 2.5 mM DTT to activate PTP. At the same time, DMSO (0.1% (V/V)) or the compounds (concentration: 0.5 nM to 1 μM) were added, mixed and co-incubated for 1 hour. DiFMUP (50 μM, total reaction system volume of 20 μL) was added, and the reaction was started. After 30 min of incubation, the fluorescence intensity of the reaction system (excitation wavelength: 350 nm, emission wavelength: 460 nm) was measured by Tecan Infinite M1000.

MV-4-11 cell = test: Cell proliferation assay (Cell Titer-Glo); assay type: cell-based; conditions: Homo sapiens, MV4-11, 96 h, inhibition of MV-4-11 cell proliferation; Cell Titer-Glo on day 4
Procedure: MV 411 cells (20000 cells/well) were inoculated and cultured in 96 (Corning #3916) well plates, and the medium was 80 μL/well (IMDM with 10% fetal bovine serum (FBS), Gibco #10099-141C). After 24 hours of incubation, 20 μL of the compounds of the present invention configured to different concentrations (DMSO final concentration of 0.1% (V/V)) were added. On day 4, 60 μL of Cell Titer-Glo (Promega #G7558) was added to each well and mixed at 80 rpm, 25° C., 15 min, and the fluorescence values were detected by Victor X5 (PE).

hERG potassium channel = target: T2, hERG potassium channel (Homo sapiens, UniProt Q12809); test: Inhibition of hERG potassium channel current, manual patch clamp in CHO cells stably expressing hERG; assay type: cell-based; conditions: whole-cell patch clamp, room temperature
T2 construct: expressed in transfected cells; host or cells: CHO (Chinese hamster ovary) cells stably expressing hERG
T2 sequence (Q12809 whole entry): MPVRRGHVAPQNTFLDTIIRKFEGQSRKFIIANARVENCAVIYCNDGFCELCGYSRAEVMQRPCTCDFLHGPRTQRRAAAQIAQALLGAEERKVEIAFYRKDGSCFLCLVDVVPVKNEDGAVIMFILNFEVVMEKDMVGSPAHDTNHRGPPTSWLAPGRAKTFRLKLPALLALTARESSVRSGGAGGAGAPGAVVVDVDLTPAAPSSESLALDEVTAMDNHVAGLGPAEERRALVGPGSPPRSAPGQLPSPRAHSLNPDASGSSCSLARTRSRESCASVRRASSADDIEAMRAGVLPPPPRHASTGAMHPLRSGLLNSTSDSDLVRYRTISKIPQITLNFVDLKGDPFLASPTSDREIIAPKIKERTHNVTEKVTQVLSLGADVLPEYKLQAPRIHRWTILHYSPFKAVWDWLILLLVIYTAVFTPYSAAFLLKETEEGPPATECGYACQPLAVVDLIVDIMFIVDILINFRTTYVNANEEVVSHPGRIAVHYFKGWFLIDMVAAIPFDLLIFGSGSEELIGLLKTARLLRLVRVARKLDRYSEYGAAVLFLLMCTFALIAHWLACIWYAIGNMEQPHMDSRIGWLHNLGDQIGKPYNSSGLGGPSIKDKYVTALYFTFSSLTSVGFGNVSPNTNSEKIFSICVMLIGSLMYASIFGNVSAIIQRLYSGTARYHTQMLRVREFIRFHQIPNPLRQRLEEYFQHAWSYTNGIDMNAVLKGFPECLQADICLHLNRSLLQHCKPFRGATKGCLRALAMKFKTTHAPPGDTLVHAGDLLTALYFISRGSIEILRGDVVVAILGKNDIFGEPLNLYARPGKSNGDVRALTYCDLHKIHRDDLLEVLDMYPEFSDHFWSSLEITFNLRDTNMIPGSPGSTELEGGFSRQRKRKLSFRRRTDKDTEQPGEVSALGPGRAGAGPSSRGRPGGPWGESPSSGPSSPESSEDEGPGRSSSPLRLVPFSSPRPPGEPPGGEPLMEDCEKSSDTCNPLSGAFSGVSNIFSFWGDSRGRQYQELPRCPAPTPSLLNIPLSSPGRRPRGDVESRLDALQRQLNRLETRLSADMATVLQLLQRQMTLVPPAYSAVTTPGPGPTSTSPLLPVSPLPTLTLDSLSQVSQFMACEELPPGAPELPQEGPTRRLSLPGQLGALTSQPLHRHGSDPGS
Procedure: The electrophysiological manual patch clamp method was used to test the effect of the compounds on the current of hERG potassium channel (human Ether-a-go-go Related Gene potassium channel).
CHO cells stably expressing hERG were cultured in a cell Petri dish having a diameter of 35 mm, placed in an incubator at 37° C. and with 5% CO2, and passaged every 48 hours at a ratio of 1:5. The culture medium formula was: 90% F12 (Invitrogen), 10% fetal bovine serum (Gibco), 100 μg/mL G418 (Invitrogen), and 100 μg/mL Hygromycin B (Invitrogen). On the day of the test, the cell culture medium was sucked away, and the cells were washed with extracellular fluid once. Then 0.25% Trypsin-EDTA (Invitrogen) solution was added, and the cells was digested at room temperature for 3-5 min. The digestive fluid was sucked away, and the cells were resuspended with extracellular fluid, and transferred to the experimental dish for electrophysiological recording.
On the day of test, the compounds were prepared using DMSO into mother solution with concentration of 20 mM, and then serial dilution with DMSO was performed three times, i.e., 10 μL of the solution was added to 20 μL of DMSO, then 10 μL of the serial diluted solution of the compounds in DMSO was added to 4990 μL of extracellular fluid, and 500 times of dilution was performed to obtain the final concentration to be tested.
The hERG potassium channel currents of CHO (Chinese hamster ovary) cells stably expressing hERG potassium channels were recorded using whole-cell patch clamp technique at room temperature. The glass microelectrodes were made from glass electrode blanks (BF150-86-10, Sutter) by pulling through a puller, and the tip resistance was about 2-5 MΩ after filling the electrode with the inner liquid. The glass microelectrodes could be connected to a patch clamp amplifier by inserting them into the amplifier probe. Clamp voltage and data recording were controlled and recorded by a computer using software pClamp 10 with a sampling frequency of 10 kHz and a filtering frequency of 2 kHz. After obtaining a whole-cell recording, the cell was clamped at −80 mV, and the step voltage inducing hERG potassium current (IhERG) was given a depolarizing voltage from −80 mV to +20 mV for 2 s, and repolarized to −50 mV for 1 s, then returning to −80 mV. This voltage stimulus was given every 10 s. After it is determined that the potassium hERG current was stable (for 1 min), the dosing process was initiated. The compounds were administered for at least 1 min at each tested concentration, and at least 2 cells (n≥2) were tested at each concentration.
Data analysis and processing were conducted using softwares pClamp 10, GraphPad Prism 5, and Excel. The degree of inhibitory activity of different compound concentrations on hERG potassium current (peak value of hERG tail current induced at −50 mV) was calculated using the following formula: Inhibition %=[1−(I/Io)]×100%. Among them, Inhibition % represents the percentage inhibition of the compound on hERG potassium current, and I and Io represent the amplitude of hERG potassium current after and before dosing, respectively.
IC50 of the compounds was calculated using software GraphPad Prism 5 by fitting the following equation: Y=Bottom+(Top−Bottom)/(1+10^(Log IC50−X)*HillSlope). Among them, X is the Log value of the detection concentration of test material, Y is the inhibition percentage at the corresponding concentration, and Bottom and Top are the minimum and maximum inhibition percentages, respectively.

[1] = test system: human esophageal squamous carcinoma cell line KYSE-520; test: KYSE-520 subcutaneous transplantation tumor model; assay type: in vivo; conditions: KYSE-520 subcutaneous tumor, female Balb/C nude mice, 10 mg/kg, PO, QD
Procedure: The human esophageal squamous carcinoma cell line KYSE-520 was cultured in RPMI 1640 containing 10% fetal bovine serum placed in a 37° C., 5% CO2 sterile incubator. The cells were passaged 2-3 times per week, digested with 0.25% trypsin-EDTA. After terminating the digestion with the above complete medium, the system was centrifugated at 1000 rpm for 5 min. The supernatant was discarded, and the cells were resuspended and passaged at a ratio of 1:3-1:5. Cells in logarithmic phase were collected, resuspended in serum-free RPMI 1640, counted and adjusted to the appropriate density.
KYSE-520 cells (3×10^6 cells/mouse) were inoculated into the right ventral dorsum of approximately 6- to 8-week-old female Balb/C nude mice. Then the tumors grew to an average volume of about 200 mm^3, the tumors were randomly grouped according to the tumor volume and body weight (n=8-10). Administration was started on the day of grouping and was performed once daily, defining the day of grouping as day 0. Tumor diameters were measured twice a week with vernier calipers, and tumor volume was calculated by the formula TV (mm^3)=0.5×a×b^2, with a and b representing the long and short diameters (in mm) of the tumors, respectively. When the average tumor volume of the control group was about 800 mm^3, the experiment was terminated. The tumor tissues were isolated and weighed to calculate the tumor weight proliferation rate with T/Cweight %=TWT/TWC %, and TWT and TWC represent the tumor weight of the administered group and the vehicle control group, respectively.

| Structure (SMILES) | IC50 (SHP-2 enzyme) | IC50 (MV-4-11 cell) | IC50 (hERG potassium channel) | T/Cweight (tumor weight proliferation rate) [1] |
| --- | --- | --- | --- | --- |
| COc1ccc2c(c1)C(N)C1(CCN(c3cnc(C(=O)N4Cc5sc(N)nc5C(F)(F)C4)c(N)n3)CC1)C2 (stereo not shown) [Compound 125] | 10 nM |  | > 30000 nM |  |
| Nc1nc2c(s1)CN(C(=O)c1ncc(N3CCC4(CC3)Cc3ccccc3[C@H]4N)nc1N)CC2(F)F [Compound 63] | 3 nM | < 5 nM | > 30000 nM | 28.94% |
| COc1ccc2c(c1)C(N)C1(CCN(c3cnc(C(=O)N4CCc5nc(N)sc5C4)c(N)n3)CC1)C2 (stereo not shown) [Compound 82] | 4 nM | 25 nM | > 30000 nM |  |
| [2H]C1([2H])CN(C(=O)c2ncc(N3CCC4(CC3)Cc3ccccc3C4N)nc2N)Cc2sc(N)nc21 (stereo not shown) [Compound 108] | 3 nM | 8 nM | > 30000 nM |  |
| Nc1ccc2c(c1)CCN2C(=O)c1ncc(N2CCC3(CC2)Cc2ccccc2C3N)nc1N (stereo not shown) [Compound 96] | 4 nM | 157 nM |  |  |

The next lines start with results.

| IC50 (SHP-2 enzyme) | IC50 (MV-4-11 cell) | Structure (SMILES) | IC50 (hERG potassium channel) | T/Cweight (tumor weight proliferation rate) [1] |
| --- | --- | --- | --- | --- |
| 7 nM | 7 nM | Nc1nc2c(s1)CN(C(=O)c1ncc(N3CCC4(CC3)Cc3cc(F)ccc3C4N)nc1N)CC2(F)F (stereo not shown) [Compound 114] | > 30000 nM | 39.69% |
| 4 nM | 46 nM | Nc1ccc2c(n1)CCN2C(=O)c1ncc(N2CCC3(CC2)Cc2ccccc2C3N)nc1N (stereo not shown) [Compound 60] |  | 44.62% |
|  | 25 nM | [2H]C1([2H])CN(C(=O)c2ncc(N3CCC4(CC3)Cc3ccc(OC)cc3C4N)nc2N)Cc2sc(N)nc21 (stereo not shown) [Compound 70] | > 30000 nM | 35.04% |
| 6 nM | 253 nM | Nc1nc(N2CCC3(CC2)Cc2cc(F)ccc2C3N)nnc1C(=O)N1CCCn2nccc21 (stereo not shown) [Compound 59] | > 30000 nM |  |
| 6 nM |  | Nc1nc2c(s1)CN(C(=O)c1cnc(N3CCC4(CC3)Cc3ccccc3C4N)c(CO)n1)CC2(F)F (stereo not shown) [Compound 126] | > 30000 nM |  |
| 3 nM | 107 nM | Nc1nc(N2CCC3(CC2)Cc2cc(F)ccc2C3N)cnc1C(=O)N1CCc2ncccc21 (stereo not shown) [Compound 21] |  |  |
